What all share (format): in vivo, Kunming mice
Test [1] in a line: Fasting blood glucose level by glucometer in D-galactose-injected mice. The settings on record: for blood glucose level decreased compared to the non-supplement group: 14th week. On the procedure: (§1) Six-week-old, male, Kunming mice, weighed about 30±2 g, were obtained from Cavens Lab Animal (Changzhou, China) and housed in a controlled room (25±2° C., 60% relative humidity, 12 h light/dark cycle) with free access to water and standard laboratory diet. After an acclimation period (1 week), mice were randomly divided into 3 groups of 9 animals. Choose the mice's back skin as the experimental observation area, use a razor to shave off the back hair of the mice. Apply 5% sodium sulfide solution to the back of the mice to remove the hair. Then all mice were injected subcutaneously with the same volume of D-galactose (1000 mg/kg), once a day for 8 weeks. During the entire process of the experiment, the daily food intake and weight of mice were recorded every day, and the D-galactose injection dose was adjusted following the weight change. The 3 groups of 9 animals were (1) non-supplement group (Con, Group 1); (2) DHB supplement group (DHB, 100 mg/kg, Group 2); (3) DHB supplement group (DHB, 200 mg/kg, Group 3). Mice in group 2 and group 3 were injected subcutaneously (s.c.) into their back skins with the corresponding concentrations of DHB before each major meal once daily for 6 weeks. When all mice were on fasting, collect approximately 10 μL of blood by the tail nick for 3 times, at the beginning of the trial (0 week), after the D-galactose injection (8th week), and at the end of the trial (14th week). Use the glucometer to measure the glucose level.

Another test concerns GSH-Px. As to the kind of experiment: GSH-Px activity in skin of D-galactose-injected mice. The settings on record: 14th week. The method, then: as §1, with “[…] The levels of H2O2, MDA, SOD, CAT, GSH, and GSH-Px” for “Mice”, “the skin were detected with relative kits as reference. […] Quantitative polymerase chain reaction (QPCR)” for “group 2”, “western blot methods” for “group 3”, “used” for “injected subcutaneously (s.c.) into their back skins with the corresponding concentrations of DHB before each major meal once daily for 6 weeks. When all mice were on fasting, collect approximately 10 μL of blood by the tail nick for 3 times, at the beginning of the trial (0 week), after the D-galactose injection (8th week), and at the end of the trial (14th week). Use the glucometer”, “expression of MMP-1 in the skin.” for “glucose level.”

In the next test the test system is GSH. As to the kind of experiment: GSH activity in skin of D-galactose-injected mice. The settings on record: DHB groups (100 and 200 mg/kg s.c.), 14th week. The method, then:
as §1, with “[…] The levels of H2O2, MDA, SOD, CAT, GSH, and GSH-Px” for “Mice”, “the skin were detected with relative kits as reference. […] Quantitative polymerase chain reaction (QPCR)” for “group 2”, “western blot methods” for “group 3”, “used” for “injected subcutaneously (s.c.) into their back skins with the corresponding concentrations of DHB before each major meal once daily for 6 weeks. When all mice were on fasting, collect approximately 10 μL of blood by the tail nick for 3 times, at the beginning of the trial (0 week), after the D-galactose injection (8th week), and at the end of the trial (14th week). Use the glucometer”, “expression of MMP-1 in the skin.” for “glucose level.”

Another test concerns MDA. As to the kind of experiment: MDA content in skin of D-galactose-injected mice (kit/ELISA). The following applies: group 3, DHB 200 mg/kg s.c., 14th week. The method, then:
as §1, with “[…] The levels of H2O2, MDA, SOD, CAT, GSH, and GSH-Px” for “Mice”, “the skin were detected with relative kits as reference. […] Quantitative polymerase chain reaction (QPCR)” for “group 2”, “western blot methods” for “group 3”, “used” for “injected subcutaneously (s.c.) into their back skins with the corresponding concentrations of DHB before each major meal once daily for 6 weeks. When all mice were on fasting, collect approximately 10 μL of blood by the tail nick for 3 times, at the beginning of the trial (0 week), after the D-galactose injection (8th week), and at the end of the trial (14th week). Use the glucometer”, “expression of MMP-1 in the skin.” for “glucose level.”
For orientation: ELISA stands for enzyme-linked immunosorbent assay.

The test system of a further test is MMP-1. As to the kind of experiment: MMP-1 expression in skin (QPCR and western blot) of D-galactose-injected mice. The settings on record: 14th week. On the procedure: as §1, with “[…] The levels of H2O2, MDA, SOD, CAT, GSH, and GSH-Px” for “Mice”, “the skin were detected with relative kits as reference. […] Quantitative polymerase chain reaction (QPCR)” for “group 2”, “western blot methods” for “group 3”, “used” for “injected subcutaneously (s.c.) into their back skins with the corresponding concentrations of DHB before each major meal once daily for 6 weeks. When all mice were on fasting, collect approximately 10 μL of blood by the tail nick for 3 times, at the beginning of the trial (0 week), after the D-galactose injection (8th week), and at the end of the trial (14th week). Use the glucometer”, “expression of MMP-1 in the skin.” for “glucose level.”
Background: In western blotting, separated proteins are transferred to a membrane and probed.

The next test deals with H2O2. The experiment in a line: H2O2 content in skin homogenate of D-galactose-injected mice. The following applies: 14th week. The method, then:
as §1, with “[…] The levels of H2O2, MDA, SOD, CAT, GSH, and GSH-Px” for “Mice”, “the skin were detected with relative kits as reference. […] Quantitative polymerase chain reaction (QPCR)” for “group 2”, “western blot methods” for “group 3”, “used” for “injected subcutaneously (s.c.) into their back skins with the corresponding concentrations of DHB before each major meal once daily for 6 weeks. When all mice were on fasting, collect approximately 10 μL of blood by the tail nick for 3 times, at the beginning of the trial (0 week), after the D-galactose injection (8th week), and at the end of the trial (14th week). Use the glucometer”, “expression of MMP-1 in the skin.” for “glucose level.”

A further test deals with CAT. As to the kind of experiment: CAT activity in skin of D-galactose-injected mice. The following applies: DHB groups (100 and 200 mg/kg s.c.), 14th week. The method, then: as §1, with “[…] The levels of H2O2, MDA, SOD, CAT, GSH, and GSH-Px” for “Mice”, “the skin were detected with relative kits as reference. […] Quantitative polymerase chain reaction (QPCR)” for “group 2”, “western blot methods” for “group 3”, “used” for “injected subcutaneously (s.c.) into their back skins with the corresponding concentrations of DHB before each major meal once daily for 6 weeks. When all mice were on fasting, collect approximately 10 μL of blood by the tail nick for 3 times, at the beginning of the trial (0 week), after the D-galactose injection (8th week), and at the end of the trial (14th week). Use the glucometer”, “expression of MMP-1 in the skin.” for “glucose level.”

The test system of the next test is SOD. The experiment in a line: SOD activity in skin of D-galactose-injected mice. The following applies: 14th week. On the procedure:
as §1, with “[…] The levels of H2O2, MDA, SOD, CAT, GSH, and GSH-Px” for “Mice”, “the skin were detected with relative kits as reference. […] Quantitative polymerase chain reaction (QPCR)” for “group 2”, “western blot methods” for “group 3”, “used” for “injected subcutaneously (s.c.) into their back skins with the corresponding concentrations of DHB before each major meal once daily for 6 weeks. When all mice were on fasting, collect approximately 10 μL of blood by the tail nick for 3 times, at the beginning of the trial (0 week), after the D-galactose injection (8th week), and at the end of the trial (14th week). Use the glucometer”, “expression of MMP-1 in the skin.” for “glucose level.”

The test system of the next test is skin collagen fibers. As to the kind of experiment: Masson staining, quantification of skin collagen fibers in D-galactose-injected mice. The settings on record: 14th week. On the procedure: as §1, with “[…] To further examine the content of skin collagen fibers, this was determined by Masson's staining. Then quantitation of skin epidermis” for “Mice in group 2”, “dermis, and collagen” for “group 3”, “calculated based on” for “injected subcutaneously (s.c.) into their back skins with”, “results” for “corresponding concentrations”, “observation.” for “DHB before each major meal once daily for 6 weeks. When all mice were on fasting, collect approximately 10 μL of blood by the tail nick for 3 times, at the beginning of the trial (0 week), after the D-galactose injection (8th week), and at the end of the trial (14th week). Use the glucometer to measure the glucose level.”

Test [2] has as its system skin epidermis and dermis. As to the kind of experiment: H&E staining, quantitation of skin epidermis and dermis in D-galactose-injected mice. The following applies: 14th week. The method, then:
Six-week-old, male, Kunming mice, weighed about 30±2 g, were obtained from Cavens Lab Animal (Changzhou, China) and housed in a controlled room (25±2° C., 60% relative humidity, 12 h light/dark cycle) with free access to water and standard laboratory diet. After an acclimation period (1 week), mice were randomly divided into 3 groups of 9 animals. Choose the mice's back skin as the experimental observation area, use a razor to shave off the back hair of the mice. Apply 5% sodium sulfide solution to the back of the mice to remove the hair. Then all mice were injected subcutaneously with the same volume of D-galactose (1000 mg/kg), once a day for 8 weeks. During the entire process of the experiment, the daily food intake and weight of mice were recorded every day, and the D-galactose injection dose was adjusted following the weight change. The 3 groups of 9 animals were (1) non-supplement group (Con, Group 1); (2) DHB supplement group (DHB, 100 mg/kg, Group 2); (3) DHB supplement group (DHB, 200 mg/kg, Group 3). Mice in group 2 and group 3 were injected subcutaneously (s.c.) into their back skins with the corresponding concentrations of DHB before each major meal once daily for 6 weeks. All mice were sacrificed following 6 weeks at the end of the experiment. The skin tissue was divided into three parts, the first part was stored at −80° C. until assays were performed, the second part was immediately collected, weighed and homogenized (4° C.; 3500 rpm for 15 min) for biochemical and histological analyses, and the third part was fixed in 10% formalin until further use. Hematoxylin-eosin staining (H&E) and Masson staining were performed on skin samples. Skins were fixed in 10% formalin 48 h at room temperature and paraffin-embedded afterward. With H&E staining, skins were sliced into 4 μm, dehydrated of gradient ethanol, and stained with hematoxylin and eosin. For Masson staining, sliced skins were stained with a Masson kit as the instruction said. H&E staining to observe the skin epidermis and dermis structure change and analyze stained collagen fibers by Image-Pro Plus 6.0 in the perspective of 400 times to detect the percentage of collagen fibers area. To further examine the content of skin collagen fibers, this was determined by Masson's staining. Then quantitation of skin epidermis and dermis, and collagen were calculated based on the results of observation.

The mark [3] stands for this setting: DHB groups (100 and 200 mg/kg s.c.).
The mark [4] stands for this setting: DHB supplemented groups (100 and 200 mg/kg s.c.).

On to `COc1ccc2c(c1OC)CN1CCc3cc4c(cc3C1=C2)OCO4` [DHB, Dihydroberberine], for which the “blood glucose levels after supplementation” value in test [1] (setting [3]) is reported as “decreased significantly”. The “blood glucose level decreased compared to the non-supplement group” value in test [1] (group 2, DHB 100 mg/kg s.c. once daily for 6 weeks) is “about 39%”; in test [1] (group 3, DHB 200 mg/kg s.c. once daily for 6 weeks), approximately 44%. Further, the “GSH-Px activity after DHB supplementation” value in the test with GSH-Px (setting [3]) was “significantly improved”. Also, the “GASH-Px increase compared to non-supplementation group” value with GSH-Px (group 3, DHB 200 mg/kg s.c.) is recorded as approximately 1.8 times. For the same compound, the “GSH activity after DHB supplementation” value in the test on GSH is listed as “significantly improved”. In the test with MDA, the “content of MDA lower than in the control group” value is on record as 63%. Further, the “MMP-1 expression reduced compared to non-supplement group” value in the test with MMP-1 (group 2, DHB 100 mg/kg s.c.) is reported as “about 23%”; with MMP-1 (group 3, DHB 200 mg/kg s.c.), “about 51%”. Also, the “H2O2 content decreased compared to the non-supplement group” value in the test with H2O2 (group 2, DHB 100 mg/kg s.c.) is “about 33%”; in the test on H2O2 (group 3, DHB 200 mg/kg s.c.), approximately 58%. Also, the “CAT activity after DHB supplementation” value with CAT was “significantly improved”. Further, the “SOD activity after DHB supplementation” value in the test with SOD (setting [3]) is listed as “significantly improved”. For the same compound, the “SOD increase compared to non-supplementation group” value with SOD (group 3, DHB 200 mg/kg s.c.) was “about 2.9 times”. In the test on skin collagen fibers (DHB supplement groups (100 and 200 mg/kg s.c.)), the “contents of collagen in the skin tissue compared with the control group” value is recorded as “significantly higher”. The “content of collagen in the skin tissue, higher than control group” value in the test with skin collagen fibers (higher dose group, DHB 200 mg/kg s.c.) is recorded as 2.2 times. Besides, the “dermal thickness vs control group” value in test [2] (setting [4]) was “significant thicker”. Moreover, the “epidermal thickness vs control group” value in [2] (setting [4]) was “significant thicker”. The “prevention or reduction of dermal thickness decrease” value in test [2] (group 3, DHB 200 mg/kg s.c.) is listed as 78%. For the same compound, the “prevention or reduction of epidermal thickness decrease” value in test [2] (group 3, DHB 200 mg/kg s.c.) is 72%.

The values are drawn from patent US12458631B2, “Use of dihydroberberine or its derivatives for anti-glycation” (NANJING NUTRABUILDING BIO-TECH CO., LTD., priority 2022, dated 2025).
